In brackets after ≈: the same amount, converted by molar mass. Each block holds one compound with its values, some of them ahead of it. No end group written: not given here.
How the values were obtained:
[1] = Solubility of peptides in buffer
[2] = Circular dichroism spectra and thermal melting at 222 nm; assay type: physicochemical; conditions: for Tm: CD at 222 nm; for effect of mutation on peptide secondary structure by CD: pH 12, compared to 225-3
[3] = system: endogenous Ras in Capan-1 cell lysate; assay: Peptide pulldown of Ras in Capan-1 cell lysate; assay type: binding, human; conditions: for pulldown of endogenous Ras by biotinylated peptide: 5 μM peptide, streptavidin beads, western blot
[4] = not told
GppNHp-bound Rapla = GppNHp-bound Rapla (Homo sapiens, UniProt P62834); conditions: Rapla versus Ras
[5] = molecular target: T1, endogenous Ras / Raf RBD interaction (Homo sapiens, UniProt P01116, G12V); assay: GST-Raf RBD pulldown of Ras in Capan-1 cell lysate, competition by peptide; assay type: biochemical; conditions: lysate pre-incubated with 10 μM peptide
T1 construct: endogenous in cells; host or cells: Capan-1 lysate (Ras); the GST-Raf RBD was made in E. coli BL21 Rosetta I pLysS from pGEX-5X

[6] = molecular target: KRas (G12V) loaded with mant-GppNHp (Homo sapiens, UniProt P01116, G12V); assay: Mant nucleotide dissociation assay; assay type: biochemical; conditions: 1 μM Raf or peptide, 500 nM Ras, excess GppNHp
KRas (G12V).GppNHp = KRas (G12V).GppNHp (Homo sapiens, UniProt P01116, G12V); assay: Fluorescence polarization binding of FITC-labeled 225-3 and its alanine mutants to KRas; conditions: alanine mutants of 225-3
[7] = system: H358 lung adenocarcinoma cells; assay: Live-cell confocal microscopy with fluorescein-labeled peptides; assay type: cell-based, human; conditions: 5 uM, compared to SEQ ID NO: 10
Method: Human tumor cell lines (e.g., H358 or HPAF-II) were seeded into LabTek II culture chambers in DMEM media supplemented with 10% fetal calf serum and grown overnight at 37° C. under standard cell culture conditions. The following day, media was replaced with media containing 5 uM of fluorescein-labeled peptide and incubated for 4 hours at 37° C. The cells were washed, stained with NucBlue Hoechst 33342 and Dextran 10k Alexa647, then imaged on a confocal microscope. The fluorescent peptides were visualized with a 488 nm laser and is shown in green in FIGS. 34A-B.

KRas = KRas (Homo sapiens, UniProt P01116, G12V); assay: Yeast surface display binding to KRas (FACS)
Myc/Max heterodimer = Myc/Max heterodimer (Homo sapiens, UniProt P01106+P61244); assay: Yeast surface display binding to Myc/Max; conditions: FIG. 38C
Excerpt: (§1) Experimental for yeast display assays were similar to those used for FIG. 9. MY01 peptide of SEQ ID NO: 43 corresponds to the indicated high-binding population in FIG. 38C. Purification of the RalA protein was similar to the methods used for KRas constructs as discussed previously.
Purification of the Myc/Max proteins was done as follows. A bicistronic pET vector containing His6-yBBr-TEV-Myc (residues 353-434) and untagged Max (residues 22-102) was transformed into chemically competent BL21 cells. The cells were grown to OD600=0.7, induced with 0.25 mM IPTG for 5 hours at 30° C., then harvested and resuspended in lysis buffer (20 mM HEPES pH 7.5, 500 mM KCl, 5% glycerol) prior to snap-freezing in liquid nitrogen. For purification, the pellet was thawed, raised to 40 ml in the same buffer, and mixed with a Roche Complete EDTA-free protease inhibitor tablet. The cells were lysed with a tip sonicator (VirSonic, 6 cycles of 10 s on, 15 s off at 6.5 power level), then pelleted at 30,000×g for 30 minutes and filtered through a 0.45 uM Tuffryn membrane (Pall Corporation). The clarified lysate was added to 2 ml of HisPur Ni-NTA resin (Thermo Pierce) that had been equilibrated with the same buffer, and drained by gravity. The column was washed with 20 ml of buffer, then protein was eluted with buffer containing 150 mM imidazole and some protease inhibitor. […]

RalA = molecular target: T2, RalA (Homo sapiens, UniProt P11233); assay: Yeast surface display binding to RalA; conditions: FIG. 38A-B
T2 sequence (P11233 1-206): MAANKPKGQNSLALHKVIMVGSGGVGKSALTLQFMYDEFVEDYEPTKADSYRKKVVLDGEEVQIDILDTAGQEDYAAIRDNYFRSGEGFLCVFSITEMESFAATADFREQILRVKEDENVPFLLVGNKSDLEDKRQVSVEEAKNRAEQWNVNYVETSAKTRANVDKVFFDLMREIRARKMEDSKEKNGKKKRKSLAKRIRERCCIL
Excerpt: as §1

Ras = Ras (Homo sapiens, UniProt P01116, G12V); assay: Ras binding of disulfide-protected peptide on addition of glutathione; conditions: Cys protected with 2,2′-Dipyridyldisulfide; 5 mM reduced glutathione
Excerpt: This cysteine is uncaged in the presence of […] glutathione levels to form the disulfide-bonded species, which is a better Ras binder. […] The experimentals are the similar to those described for FIG. 19.

Compound: CC[C@H](C)[C@H](NC(=O)[C@H](CO)NC(=O)[C@H](C)NC(=O)[C@H](CC(=O)O)NC(=O)[C@H](CC(=O)O)NC(=O)CNC(=O)[C@@H]1CCCN1C(=O)[C@H](Cc1ccc(O)cc1)NC(=O)[C@H](CCCNC(=N)N)NC(=O)[C@@H]1CCCN1C(=O)[C@H](CCCNC(=N)N)NC(=O)[C@H](CCCNC(=N)N)NC(=O)[C@@H]1CCCN1C(=O)CNC(=O)CNC(=O)[C@H](CS)NC(=O)CN)C(=O)N[C@@H](CCC(=O)O)C(=O)N[C@@H](CC(=O)O)C(=O)N[C@@H](CC(C)C)C(=O)N[C@@H](Cc1c[nH]cn1)C(=O)N[C@@H](CCC(=O)O)C(=O)N[C@@H](Cc1ccc(O)cc1)C(=O)N[C@@H](Cc1c[nH]c2ccccc12)C(=O)N[C@@H](C)C(=O)N[C@@H](CCCNC(=N)N)C(=O)N[C@@H](CC(C)C)C(=O)N[C@@H](Cc1c[nH]c2ccccc12)C(=O)N[C@@H](CC(N)=O)C(=O)N[C@@H](Cc1ccc(O)cc1)C(=O)N[C@@H](CC(C)C)C(=O)N[C@@H](Cc1ccc(O)cc1)C(=O)N[C@@H](C)C(=O)N[C@H](C(=O)N[C@@H](C)C(=O)O)C(C)C [Peptide 225-1]
solubility [1]: 100 to 200 µM (≈ 407 to 814 µg/mL)

Tm ([2]; pH 4.5): 57 °C
Tm ([2]; pH 12): 46.2 °C
cell permeability [4]: somewhat cell permeable
binding weaker than to Ras (GppNHp-bound Rapla): more than 100 fold
Compound: CC[C@H](C)[C@H](NC(=O)[C@H](CO)NC(=O)[C@H](C)NC(=O)[C@H](CC(=O)O)NC(=O)[C@H](CC(=O)O)NC(=O)CNC(=O)[C@@H]1CCCN1C(=O)[C@H](Cc1ccc(O)cc1)NC(=O)[C@H](CCCNC(=N)N)NC(=O)[C@@H]1CCCN1C(=O)[C@H](CCCNC(=N)N)NC(=O)[C@H](CCCNC(=N)N)NC(=O)[C@@H]1CCCN1C(=O)[C@H](CCCNC(=N)N)NC(=O)[C@H](CCCNC(=N)N)NC(=O)[C@@H]1CCCN1C(=O)CNC(=O)CNC(=O)[C@H](CS)NC(=O)CN)C(=O)N[C@@H](CCC(=O)O)C(=O)N[C@@H](CC(=O)O)C(=O)N[C@@H](CC(C)C)C(=O)N[C@@H](Cc1c[nH]cn1)C(=O)N[C@@H](CCC(=O)O)C(=O)N[C@@H](Cc1ccc(O)cc1)C(=O)N[C@@H](Cc1c[nH]c2ccccc12)C(=O)N[C@@H](C)C(=O)N[C@@H](CCCNC(=N)N)C(=O)N[C@@H](CC(C)C)C(=O)N[C@@H](Cc1c[nH]c2ccccc12)C(=O)N[C@@H](CC(N)=O)C(=O)N[C@@H](Cc1ccc(O)cc1)C(=O)N[C@@H](CC(C)C)C(=O)N[C@@H](Cc1ccc(O)cc1)C(=O)N[C@@H](C)C(=O)N[C@H](C(=O)N[C@@H](C)C(=O)O)C(C)C [Peptide 225-3]
pulldown of endogenous Ras by biotinylated peptide [3]: pulled down Ras
pulldown of endogenous Ras by biotinylated peptide after Raf RBD pre-incubation ([3]; lysate pre-incubated with Raf RBD (3 μM)): not when the lysate was pre-incubated with the Raf RBD

Compound: GCGGPRRPRRPRYPGDDASIEDLHEYAARLWNYLYAVA [Peptide W21A]
effect of mutation on peptide secondary structure by CD [2]: significant destabilizing effect

Compound: GCGGPRRPRRPRYPGDDASIEDLHEYWARLANYLYAVA [Peptide W25A]
effect of mutation on peptide secondary structure by CD [2]: significant destabilizing effect

Compound: GCGGPRRPRRPRYPGDDASIEDLHEYWARLWAYLYAVA [Peptide N26A]
effect on pulldown of Ras by GST-tagged Raf RBD [5]: did not disrupt this pulldown
effect of mutation on peptide secondary structure by CD [2]: unchanged compared to 225-3
pulldown of endogenous Ras by biotinylated peptide [3]: not pulled down
effect on rate of mantGppNHp dissociation from KRas [6]: did not decrease the rate of dissociation
reduction in measured binding affinity relative to 225-3 (KRas (G12V).GppNHp): at least 100 fold

Compound: GCGGPRRPRYPGDAASIAALHAYWARLWNYLYRVA [SEQ ID NO: 28]
solubility / aggregates in microscopy [7]: increased solubility

Compound: GCGGPRRPRYPGDDACEEDLHEYWARLWNYLYAVA [225-1 S13C/I14E]
binding of yeast-displayed peptide to KRas (KRas; 5 nM KRas, mutant pre-incubated with free 225-1): binds Ras with increased affinity

Compound: GCGGPRRPRYPGDDASIEDLHEYWARLWNYLYRVA [225-1 A30R]
selectivity KRas(GTP) vs KRas(GDP) (KRas; 500 nM each of Ras.GTP and Ras.GDP, two-colour FACS): more selective for KRas (GTP) than 225-1

Compound: GPRRPRCPGDDASIRDLLKYWWRLRLYLLAVA [SEQ ID NO: 43]
binding to Myc/Max (Myc/Max heterodimer): binds

Compound: GPRRPRCPGDDASIRDLVMYWYRLYFYLEAVA [SEQ ID NO: 45]
binding to RalA (RalA): binds both RalA and KRas
binding to KRas (KRas; yeast surface display, FIG. 38): binds both RalA and KRas

Compound: GPRRPRCPGDDASISDLLLYWLRLDRYLWAVA [SEQ ID NO: 44]
binding to RalA (RalA): binds

Compound: I14A: single alanine point mutant I14A of the 225-3 peptide (GCGGPRRPRRPRYPGDDASAEDLHEYWARLWNYLYAVA) [Peptide I14A]
effect of mutation on peptide secondary structure by CD [2]: significant destabilizing effect

Compound: PRRPRCPGHAASIAALHAYWARLWNYLYRVR [Peptide 291-Q3]
change in Ras binding upon addition of reduced glutathione (Ras): increase in Ras binding

From patent US11377476B2, “Ras inhibitory peptides and uses thereof” (President and Fellows of Harvard College, priority 2014, dated 2022)
